The source of these data is patent US20260355196A1, “INHIBITORS AND DEGRADERS OF PIP4K PROTEIN” (Larkspur Biosciences, Inc., priority 2023, published 2026).

Broadly, the DC50 is the concentration giving 50% degradation.

The target in the first experiment is T1, PIP4K2C (Homo sapiens, UniProt Q8TBX8).
T1 sequence (Q8TBX8 1-421): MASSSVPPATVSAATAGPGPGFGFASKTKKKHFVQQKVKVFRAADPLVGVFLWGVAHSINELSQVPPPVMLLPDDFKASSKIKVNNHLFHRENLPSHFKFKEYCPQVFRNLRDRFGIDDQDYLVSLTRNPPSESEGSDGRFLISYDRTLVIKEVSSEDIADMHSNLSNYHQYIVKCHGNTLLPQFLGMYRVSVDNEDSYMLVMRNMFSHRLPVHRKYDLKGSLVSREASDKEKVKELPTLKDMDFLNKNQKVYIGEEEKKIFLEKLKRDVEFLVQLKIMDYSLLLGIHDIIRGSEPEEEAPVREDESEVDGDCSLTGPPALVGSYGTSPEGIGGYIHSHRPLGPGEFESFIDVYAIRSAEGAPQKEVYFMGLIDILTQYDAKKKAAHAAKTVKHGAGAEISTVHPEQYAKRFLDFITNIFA
The experiment in a line: HiBiT PIP4K2C degradation assay in MOLT-4 cells (endogenous PIP4K2C C-terminally tagged with HiBiT). Details: untagged in primary human PBMCs and monocyte-derived dendritic cells. It is filed as cell-based. The note with it: 6 hours of incubation time, rather than 24 hours; MOLT-4, top concentration 10 micromolar; read-out: HiBIT-degradation MOLT4 PIP4k2C DC50 (6 hours, marked *). The procedure, abridged: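 DC50 derived by Hill fit of luminescence from Nano-Glo HiBiT lytic detection. Cells were HiBiT knock-in MOLT-4 (C-terminal tag on endogenous PIP4K2C), exposed 6 h or 24 h at 37 C to compound, top concentration 10 micromolar, 3-fold steps, 10 points, duplicates.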
On the technique in general: With HiBiT, luminescence reflects the tagged protein that the partner subunit can reach.
With `O=C1CCC(n2c(=O)oc3cc(C4CCN(CCC5CCN(C(=O)[C@@H]6CCC[C@H](Nc7ncc(F)c(-c8cccc(-n9ccccc9=O)c8)n7)C6)CC5)CC4)ccc32)C(=O)N1` (stereo partly drawn) [Compound 350, 3-(6-(1-(2-(1-((1R,3S)-3-((5-fluoro-4-(3-(2-oxopyridin-1(2H)-yl)phenyl)pyrimidin-2-yl)amino)cyclohexane-1-carbonyl)piperidin-4-yl)ethyl)piperidin-4-yl)-2-oxobenzo[d]oxazol-3 (2H)-yl)piperidine-2,6-dione], the DC50 is less than 500 nM.

The experiment is the same for the next values; noted with them: 24 hours incubation, MOLT-4, top concentration 10 micromolar; read-out: HiBIT-degradation MOLT4 PIP4k2C 24 hours DC50.
`O=C1CCC(n2c(=O)oc3cc(C4CCN(CCC5CCN(C(=O)[C@H]6C[C@@H](Nc7ncc(F)c(-c8cccc(-n9ccccc9=O)c8)n7)C6)CC5)CC4)ccc32)C(=O)N1` (stereo partly drawn) [Compound 325, cis-3-(6-(1-(2-(1-(3-((5-fluoro-4-(3-(2-oxopyridin-1(2H)-yl)phenyl)pyrimidin-2-yl)amino)cyclobutane-1-carbonyl)piperidin-4-yl)ethyl)piperidin-4-yl)-2-oxobenzo[d]oxazol-3 (2H)-yl)piperidine-2,6-dione]: the half-maximal degradation concentration (DC50) was less than 500 nM.
Same read-out and setting: next, `O=C1CCC(Nc2ccc(N3CCN(CC4CCN(CC(=O)N[C@H]5CC[C@H](Nc6ncc(F)c(-c7cccc(-n8ccccc8=O)c7)n6)CC5)CC4)CC3)c(F)c2)C(=O)N1` (stereo partly drawn) [Compound 326, trans-2-(4-((4-(4-((2,6-dioxopiperidin-3-yl)amino)-2-fluorophenyl)piperazin-1-yl)methyl)piperidin-1-yl)-N-(4-((5-fluoro-4-(3-(2-oxopyridin-1(2H)-yl)phenyl)pyrimidin-2-yl)amino)cyclohexyl)acetamide]: less than 500 nM; `O=C1CCC(Nc2ccc(N3CCC(CN4CCN(CC(=O)N[C@H]5CC[C@H](Nc6ncc(F)c(-c7cccc(-n8ccccc8=O)c7)n6)CC5)CC4)CC3)c(F)c2)C(=O)N1` (stereo partly drawn) [Compound 327, trans-2-[4-[[1-[4-[(2,6-dioxo-3-piperidyl)amino]-2-fluoro-phenyl]-4-piperidyl]methyl]piperazin-1-yl]-N-[4-[[5-fluoro-4-[3-(2-oxo-1-pyridyl)phenyl]pyrimidin-2-yl]amino]cyclohexyl]acetamide]: less than 500 nM.
Still for that read-out and setting: next, `O=C1CCC(n2c(=O)oc3cc(N4CCC(CCN5CCC(C(=O)N[C@H]6CC[C@H](Nc7ncc(F)c(-c8cccc(-n9ccccc9=O)c8)n7)CC6)CC5)CC4)ccc32)C(=O)N1` (stereo partly drawn) [Compound 329, trans-1-[2-[1-[3-(2,6-dioxo-3-piperidyl)-2-oxo-1,3-benzoxazol-6-yl]-4-piperidyl]ethyl]-N-[4-[[5-fluoro-4-[3-(2-oxo-1-pyridyl)phenyl]pyrimidin-2-yl]amino]cyclohexyl]piperidine-4-carboxamide]: 1000 to 5000 nM.
Same read-out and setting: next, `O=C1CCC(n2c(=O)oc3cc(N4CCC(CCN5CCC(C(=O)N6CCC(Nc7ncc(F)c(-c8cccc(-n9ccccc9=O)c8)n7)CC6)CC5)CC4)ccc32)C(=O)N1` (stereo not shown) [Compound 330, 3-[6-[4-[2-[4-[4-[[5-fluoro-4-[3-(2-oxo-1-pyridyl)phenyl]pyrimidin-2-yl]amino]piperidine-1-carbonyl]-1-piperidyl]ethyl]-1-piperidyl]-2-oxo-1,3-benzoxazol-3-yl]piperidine-2,6-dione]: less than 500 nM.
With `O=C1CCC(n2c(=O)oc3cc(C4CCN(CC(=O)N5CCC(O)(C(=O)N6CCC(Nc7ncc(F)c(-c8cccc(-n9ccccc9=O)c8)n7)CC6)CC5)CC4)ccc32)C(=O)N1` (stereo not shown) [Compound 331, 3-(6-(1-(2-(4-(4-((5-fluoro-4-(3-(2-oxopyridin-1(2H)-yl)phenyl)pyrimidin-2-yl)amino)piperidine-1-carbonyl)-4-hydroxypiperidin-1-yl)-2-oxoethyl)piperidin-4-yl)-2-oxobenzo[d]oxazol-3 (2H)-yl)piperidine-2,6-dione], the half-maximal degradation concentration (DC50) is less than 500 nM.
On to `Cn1c(=O)n(C2CCC(=O)NC2=O)c2ccc(C3CCN(CCC4CCN(C(=O)[C@@H]5CCC[C@H](Nc6ncc(F)c(-c7cccc(-n8ccccc8=O)c7)n6)C5)CC4)CC3)cc21` (stereo partly drawn) [Compound 335, 3-(5-(1-(2-(1-((1R,3S)-3-((5-fluoro-4-(3-(2-oxopyridin-1(2H)-yl)phenyl)pyrimidin-2-yl)amino)cyclohexane-1-carbonyl)piperidin-4-yl)ethyl)piperidin-4-yl)-3-methyl-2-oxo-2,3-dihydro-1H-benzo[d]imidazol-1-yl)piperidine-2,6-dione], for which the 50% degradation concentration (DC50) is less than 500 nM.
Still for that read-out and setting: with `O=C1CCC(n2c(=O)oc3cc(N4CCN(CC5CCN(CC(=O)N[C@H]6CC[C@H](Nc7ncc(F)c(-c8cccc(-n9ccccc9=O)c8)n7)CC6)CC5)CC4)ccc32)C(=O)N1` (stereo partly drawn) [Compound 339, trans-2-(4-((4-(3-(2,6-dioxopiperidin-3-yl)-2-oxo-2,3-dihydrobenzo[d]oxazol-6-yl)piperazin-1-yl)methyl)piperidin-1-yl)-N-(4-((5-fluoro-4-(3-(2-oxopyridin-1(2H)-yl)phenyl)pyrimidin-2-yl)amino)cyclohexyl)acetamide] the figure was less than 500 nM; with `O=C1CCC(n2c(=O)oc3cc(N4CCN(CC5CCN(CC(=O)N6CCC(Nc7ncc(F)c(-c8cccc(-n9ccccc9=O)c8)n7)CC6)CC5)CC4)ccc32)C(=O)N1` (stereo not shown) [Compound 340, 3-(6-(4-((1-(2-(4-((5-fluoro-4-(3-(2-oxopyridin-1(2H)-yl)phenyl)pyrimidin-2-yl)amino)piperidin-1-yl)-2-oxoethyl)piperidin-4-yl)methyl)piperazin-1-yl)-2-oxobenzo[d]oxazol-3 (2H)-yl)piperidine-2,6-dione], less than 500 nM.
Consider `O=C1CCC(Nc2ccc(N3CCN(CC4CCN(CC(=O)N5CCC(Nc6ncc(F)c(-c7cccc(-n8ccccc8=O)c7)n6)CC5)CC4)CC3)c(F)c2)C(=O)N1` (stereo not shown) [Compound 341, 3-((3-fluoro-4-(4-((1-(2-(4-((5-fluoro-4-(3-(2-oxopyridin-1(2H)-yl)phenyl)pyrimidin-2-yl)amino)piperidin-1-yl)-2-oxoethyl)piperidin-4-yl)methyl)piperazin-1-yl)phenyl)amino)piperidine-2,6-dione], for which the 50% degradation concentration (DC50) is less than 500 nM.
On the same count and under the same terms, next, `O=C1CCC(Nc2ccc(C3CCN(C4CCN(CCC(=O)N5CCC(Nc6ncc(F)c(-c7cccc(-n8ccccc8=O)c7)n6)CC5)CC4)CC3)c(F)c2)C(=O)N1` (stereo not shown) [Compound 343, 3-((3-fluoro-4-(1′-(3-(4-((5-fluoro-4-(3-(2-oxopyridin-1(2H)-yl)phenyl)pyrimidin-2-yl)amino)piperidin-1-yl)-3-oxopropyl)-[1,4′-bipiperidin]-4-yl)phenyl)amino)piperidine-2,6-dione]: less than 500 nM.
Same read-out and setting: next, `Cn1nc(N2CCC(=O)NC2=O)c2ccc(C3CCN(CC(=O)N4CCC(O)(C(=O)N5CCC(Nc6ncc(F)c(-c7cccc(-n8ccccc8=O)c7)n6)CC5)CC4)CC3)cc21` [Compound 346, 1-(6-(1-(2-(4-(4-((5-fluoro-4-(3-(2-oxopyridin-1(2H)-yl)phenyl)pyrimidin-2-yl)amino)piperidine-1-carbonyl)-4-hydroxypiperidin-1-yl)-2-oxoethyl)piperidin-4-yl)-1-methyl-1H-indazol-3-yl)dihydropyrimidine-2,4(1H,3H)-dione]: more than 5000 nM.

The same experiment, now with this note: read-out: HiBIT-degradation MOLT4 PIP4k2C 24 hours DC50; 24 hours incubation, MOLT-4, top concentration 10 micromolar.
Regarding `O=C1CCC(Nc2ccc(C3CCN(C4CCN(CCC(=O)N[C@H]5CC[C@H](Nc6ncc(F)c(-c7cccc(-n8ccccc8=O)c7)n6)CC5)CC4)CC3)c(F)c2)C(=O)N1` (stereo partly drawn) [Compound 328, trans-3-(4-(4-((2,6-dioxopiperidin-3-yl)amino)-2-fluorophenyl)-[1,4′-bipiperidin]-1′-yl)-N-(4-((5-fluoro-4-(3-(2-oxopyridin-1(2H)-yl)phenyl)pyrimidin-2-yl)amino)cyclohexyl)propanamide], the DC50 is less than 500 nM.
On the same count and under the same terms, next, `Cn1c(=O)n(C2CCC(=O)NC2=O)c2ccc(N3CCC(N4CCC(C(=O)N[C@H]5CC[C@H](Nc6ncc(F)c(-c7cccc(-n8ccccc8=O)c7)n6)CC5)CC4)CC3)cc21` (stereo partly drawn) [Compound 344, trans-1′-(1-(2,6-dioxopiperidin-3-yl)-3-methyl-2-oxo-2,3-dihydro-1H-benzo[d]imidazol-5-yl)-N-(4-((5-fluoro-4-(3-(2-oxopyridin-1(2H)-yl)phenyl)pyrimidin-2-yl)amino)cyclohexyl)-[1,4′-bipiperidine]-4-carboxamide]: less than 500 nM.

The same experiment, now with this note: read-out: HiBIT-degradation MOLT4 PIP4k2C DC50 (6 hours, marked *); 6 hours of incubation time, rather than 24 hours; MOLT-4, top concentration 10 micromolar.
Take `O=C1CCC(Nc2ccc(C3CCN([C@H]4CC[C@H](C(=O)N[C@H]5CC[C@H](Nc6ncc(F)c(-c7cccc(-n8ccccc8=O)c7)n6)CC5)CC4)CC3)c(F)c2)C(=O)N1` (stereo partly drawn) [Compound 345, trans-4-(4-(4-((2,6-dioxopiperidin-3-yl)amino)-2-fluorophenyl)piperidin-1-yl)-N-(trans-4-((5-fluoro-4-(3-(2-oxopyridin-1(2H)-yl)phenyl)pyrimidin-2-yl)amino)cyclohexyl)cyclohexane-1-carboxamide]: the 50% degradation concentration (DC50) is less than 500 nM.
